Assays:
Format in all cases: cell-based
[1] = target: T1, KRAS G12V protein in SW900 cells (Homo sapiens, UniProt P01116, G12V); experiment: KRAS degradation assay (Western Blot) in SW900 cells; settings: 24 h
T1 construct: endogenous in cells; host or cells: SW900
Excerpt: (§1) Test Example 5: KRAS G12C, KRAS G12D, KRAS G12V, KRAS G13D, and KRAS WT (Expanded) Degradation Assays
(§2) The degradation effect of the compounds on KRAS was investigated on KRAS G12C mutant human non-small cell lung cancer cell NCI-H358, KRAS G12D mutant human metastatic pancreatic cancer cell AsPc-1, KRAS G12D mutant human lung cancer cell A427, KRAS G12V mutant human colorectal cancer cell SW620, KRAS G12V mutant human lung cancer cell SW900, KRAS G13D mutant human colorectal cancer epithelial cell DLD-1, and KRAS WT human gastric cancer cell MKN-1. The specific procedures were as follows: 0.95 mL of cells were seeded into each well of a 24-well cell culture plate to achieve a cell density of 5×10^5 cells/well; and the cell plate was incubated in an incubator at 37° C. with 5% CO2 overnight. Then 50 μL of the compound solution after dilution was added to each of the wells with the corresponding cells, so that the final concentration of the compound was in a range of 0.03-3000 nM. The final concentration of DMSO was 0.25%. After the compounds were added, the cell plate was incubated in an incubator at 37° C. with 5% CO2 for 24 h. The culture medium in the 24-well cell culture plate was then removed, and the plate was washed twice with 1×PBS (KeyGEN). 120 μL of RIPA (strong) lysis buffer (Beyotime) (supplemented with 1 mM phenylmethylsulfonyl fluoride, a protease inhibitor mixture (Beyotime), and a protease phosphatase inhibitor mixture (Beyotime)) was added to lyse adherent SW900 cells at the bottom of the cell culture plate. After the plate was left to stand on ice for 30 min, the protein lysate in each well was transferred to a 1.5 mL centrifuge tube and centrifuged at 15000 g for 20 min at 4° C. The cell lysate supernatants after centrifugation were cryopreserved in a refrigerator at −80° C. for later use.
(§3) After the samples of the cell lysate supernatants that had been prepared were thawed from the refrigerator at −80° C., the total protein concentrations of the cell lysates were determined using a BCA protein quantification kit (Tiangen). The total protein concentrations of the samples were then adjusted to 0.5 μg/μL with PBS and 5×SDS-PAGE protein loading buffer (Beyotime), and the samples were incubated in a water bath at 100° C. for 15 min. The samples were then incubated in an ice bath for 5 min and centrifuged at 14000 g for 1 min at 4° C., and the supernatants were mixed well as loading samples for the Western Blot assay. The samples were loaded into wells of a 10% precast gel (KeyGEN) with a loading volume of 10 μL (total protein: 5 μg), a sufficient Tris-MOPS-SDS running buffer (Adamas) was added, and then electrophoresis was performed at a constant voltage of 120 V for 55 min. After the electrophoresis, the proteins on the gel were transferred to PVDF membranes at a constant current of 250 mA for 55 min. After the membrane transfer, the PVDF membranes were incubated in 1× Quick Block blocking buffer (Beyotime)at room temperature for 30 min. After the blocking, the PVDF membranes were separately incubated at 4° C. overnight with the KRAS antibody (Abcam) diluted in a ratio of 1:1000 and the β-actin antibody (Abcam) diluted in a ratio of 1:2000 in 5% BSA as the diluent, and then washed with 1×TBST buffer (2.4 g of Tris, 8.8 g of NaCl, 1.5 mL of Tween 20, with pH adjusted to 7.4, with the volume brought to 1 L) 3 times for 10 min/time. The membranes were incubated with a secondary antibody (Abcam) diluted in 5% BSA at room temperature for 2 h, and then washed with 1×TBST buffer 3 times for 10 min/time. Finally, the membranes were incubated with Clarity Western ECL Substrate (BIO-RAD) for 5 min for luminescence and color development, and a ChemiScope 6200 Touch chemiluminescence imaging system (Clinx) was used for color development and protein mapping. Gray value analysis of the protein maps was performed using the chemiluminescence analysis software (Clinx). […]

[2] = system: KRAS G12D mutant human metastatic pancreatic cancer cell AsPc-1; experiment: 3D cell proliferation inhibition assay, AsPc-1; settings: ASPC1, 168 h, 3D culture, 7 days, CTG
Excerpt: (§4) Test Example 6: 3D Cell Proliferation Inhibition Assay
(§5) The inhibitory effects of the compounds on 3D cell proliferation were investigated on KRAS G12C mutant human non-small cell lung cancer cell NCI-H358, KRAS G12D mutant human lung cancer cell A427, KRAS G12D mutant human gastric cancer cell AGS, KRAS G12D mutant human metastatic pancreatic cancer cell AsPc-1, KRAS G12V mutant human lung squamous carcinoma cell SW900, KRAS G12V mutant human colorectal cancer cell SW620, KRAS G13D mutant human colorectal cancer epithelial cell DLD-1, and KRAS WT human gastric cancer cell MKN1. The specific procedures were as follows:
(§6) 10 μL of each compound solution diluted in a gradient was added to corresponding wells of a 96-well low-adsorption microplate (PerkinElmer), so that the final concentrations of the test compounds in the reaction system were in a range of 10000-0.026 nM. The final concentration of DMSO was 0.2%. Then 90 µL of cells were correspondingly seeded into each well to achieve a cell density of 5×10^2 cells/well (the cell density of SW900 was 5×10^3 cells/well, and the cell density of MKN1 was 1×10^3 cells/well). In addition to test wells for the test compounds, both a DMSO control well and a medium control well were set, with the DMSO control well containing DMSO and cells and the medium well containing only a medium. After the sample loading, the 96-well low-adsorption microplate was incubated in an incubator at 37° C. with […] for 7 days. After 7 days, the microplate was taken out, and 100 μL of CTG reagent (Promega) was added to each well. The plate was incubated at room temperature for 60 m and read on a microplate reader EnVision by the chemiluminescence program. The inhibition rates of the compounds at each concentration were calculated using the formula for the percentage inhibition of cell proliferation: inhibition rate 00=(mean value of DMSO control group−single concentration reading value of compound)/(mean value of DMSO control group−mean value of medium control group)×100. Then non-linear curve fillings for logarithmic concentration-inhibition rate were performed by GraphPad Prism 8, and the IC50 values of the compounds were obtained (Table 6).

[3] = system: KRAS G12C mutant human non-small cell lung cancer cell NCI-H358; experiment: 3D cell proliferation inhibition assay, NCI-H358; settings: NCI-H358, 168 h, 3D culture, 7 days, CTG
Excerpt: as §4, §5, §6

[4] = system: KRAS G12V mutant human lung squamous carcinoma cell SW900; experiment: 3D cell proliferation inhibition assay, SW900; settings: SW900, 168 h, 3D culture, 7 days, CTG
Excerpt: as §4, §5, §6

[5] = system: KRAS G12V mutant human colorectal cancer cell SW620; experiment: 3D cell proliferation inhibition assay, SW620; settings: SW-620, 168 h, 3D culture, 7 days, CTG
Excerpt: as §4, §5, §6

[6] = system: KRAS WT human gastric cancer cell MKN1; experiment: 3D cell proliferation inhibition assay, MKN1; settings: MKN-1, 168 h, 3D culture, 7 days, CTG
Excerpt: as §4, §5, §6

[7] = system: KRAS G12D mutant human gastric cancer cell AGS; experiment: 3D cell proliferation inhibition assay, AGS; settings: 168 h, 3D culture, 7 days, CTG
Excerpt: as §4, §5, §6

[8] = system: KRAS G13D mutant human colorectal cancer epithelial cell DLD-1; experiment: 3D cell proliferation inhibition assay, DLD-1; settings: DLD-1, 168 h, 3D culture, 7 days, CTG
Excerpt: as §4, §5, §6

[9] = target: T2, KRAS G12V protein in SW620 cells (Homo sapiens, UniProt P01116, G12V); experiment: KRAS degradation assay (Western Blot) in SW620 cells
T2 construct: endogenous in cells; host or cells: SW620
T2 sequence (P01116 1-188 isoform P01116-2 G12V): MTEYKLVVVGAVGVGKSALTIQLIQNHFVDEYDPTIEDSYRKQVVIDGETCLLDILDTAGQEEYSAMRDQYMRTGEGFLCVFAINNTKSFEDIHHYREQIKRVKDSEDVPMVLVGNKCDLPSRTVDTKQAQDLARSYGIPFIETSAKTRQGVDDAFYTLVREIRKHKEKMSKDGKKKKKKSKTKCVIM
Excerpt: as §1, §2, §3

[10] = target: T3, KRAS G13D protein in DLD-1 cells (Homo sapiens, UniProt P01116, G13D); experiment: KRAS degradation assay (Western Blot) in DLD-1 cells; settings: 24 h
T3 construct: endogenous in cells; host or cells: DLD-1
T3 sequence (P01116 1-188 isoform P01116-2 G13D): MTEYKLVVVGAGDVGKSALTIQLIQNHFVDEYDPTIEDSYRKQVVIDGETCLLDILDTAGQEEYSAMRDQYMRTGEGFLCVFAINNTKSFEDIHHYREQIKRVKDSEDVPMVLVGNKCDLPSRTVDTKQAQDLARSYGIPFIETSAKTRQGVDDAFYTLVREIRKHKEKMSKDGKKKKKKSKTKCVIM
Excerpt: as §1, §2, §3

[11] = system: KRAS G12D mutant human lung cancer cell A427; experiment: 3D cell proliferation inhibition assay, A427; settings: A-427, 168 h, 3D culture, 7 days, CTG
Excerpt: as §4, §5, §6

T1 sequence (P01116 1-188 isoform P01116-2 G12V): as the sequence (P01116 1-188 isoform P01116-2 G12V) above

DC50 [1] [nM]	Dmax [1] [%]	IC50 [2] [nM]	IC50 [3] [nM]	IC50 [4] [nM]	IC50 [5] [nM]	IC50 [6] [nM]	IC50 [7] [nM]	IC50 [8] [nM]	DC50 ([9]; 24 h) [nM]	Dmax ([9]; SW-620, 24 h) [%]	DC50 [10] [nM]	Dmax [10] [%]	IC50 [11] [nM]	SMILES
≤ 50	80 to 100	≤ 50	≤ 50	≤ 50	3.47	≤ 50								C#Cc1cccc2cc(O)cc(-c3ncc4c(N5CCC[C@@](C)(O)C5)nc(OCC5(CN6CCN(CC7CCC8(CC7)CCN(C(=O)c7ccc(C)c(N9CCC(=O)NC9=O)c7)CC8)CC6)CC5)nc4c3F)c12 [Example 27, (R)-1-(5-(9-((4-((1-(((7-(8-ethynyl-3-hydroxynaphthalen-1-yl)-8-fluoro-4-(3-hydroxy-3-methylpiperidin-1l-yl)pyrido[4,3-d]pyrimidin-2-yl)oxy)methyl)cyclopropyl)methyl)piperazin-1-yl)methyl)-3-azaspiro[5.5]undecane-3-carbonyl)-2-methylphenyl)dihydropyrimidine-2,4(1H,3H)-dione]
≤ 50	80 to 100	50 to 100		≤ 50	9.08	≤ 50								C#Cc1c(F)ccc2cc(O)cc(-c3ccc4c(N5CCC[C@@](C)(O)C5)nc(OCC5(CN6CCN(CC7CCC8(CC7)CCN(C(=O)c7ccc(C)c(N9CCC(=O)NC9=O)c7)CC8)CC6)CC5)nc4c3F)c12 [Example 41, (R)-1-(5-(9-((4-((1-(((7-(8-ethynyl-7-fluoro-3-hydroxynaphthalen-1-yl)-8-fluoro-4-(3-hydroxy-3-methylpiperidin-1-yl)quinazolin-2-yl)oxy)methyl)cyclopropyl)methyl)piperazin-1-yl)methyl)-3-azaspiro[5.5]undecane-3-carbonyl)-2-methylphenyl)dihydropyrimidine-2,4(1H,3H)-dione]
≤ 50	80 to 100	64.2	23.6	46.8	12.3	5.55	69.5	63.5						CCc1cccc2cc(O)cc(-c3ccc4c(N5CCC[C@@](C)(O)C5)nc(OCC5(CN6CCN(CC7CCC8(CC7)CCN(C(=O)c7ccc(OC)c(N9CCC(=O)NC9=O)c7)CC8)CC6)CC5)nc4c3F)c12 [Example 23, (R)-1-(5-(9-((4-((1-(((7-(8-ethyl-3-hydroxynaphthalen-1-yl)-8-fluoro-4-(3-hydroxy-3-methylpiperidin-1-yl)quinazolin-2-yl)oxy)methyl)cyclopropyl)methyl)piperazin-1-yl)methyl)-3-azaspiro[5.5]undecane-3-carbonyl)-2-methoxyphenyl)dihydropyrimidine-2,4(1H,3H)-dione]
		24	5.58		2.93	9.19		5.68	6.73	98.9	7.28	100		C#Cc1c(F)ccc2cc(O)cc(-c3ncc4c(N5CCC[C@@](C)(O)C5)nc(OC[C@H](C)CN5CCN(CC6CCC7(CC6)CCN(C(=O)c6ccc(CC)c(N8CCC(=O)NC8=O)c6)CC7)CC5)nc4c3F)c12 [Example 133, 1-(2-ethyl-5-(9-((4-((R)-3-((7-(8-ethynyl-7-fluoro-3-hydroxynaphthalen-1-yl)-8-fluoro-4-((R)-3-hydroxy-3-methylpiperidin-1-yl)pyrido[4,3-d]pyrimidin-2-yl)oxy)-2-methylpropyl)piperazin-1-yl)methyl)-3-azaspiro[5.5]undecane-3-carbonyl)phenyl)dihydropyrimidine-2,4(1H,3H)-dione]
			500 to 1000	≤ 50		50 to 100	500 to 1000						500 to 1000	C#Cc1c(F)ccc2cc(O)cc(-c3ncc4c(N5CCC[C@@](C)(O)C5)nc(OCC5(CN6CCN(CC7CCC8(CC7)CCN(C(=O)c7ccc9c(c7)C(=O)N(C7CCC(=O)NC7=O)C9=O)CC8)CC6)CC5)nc4c3F)c12 (stereo partly drawn) [Example 13, 2-(2,6-dioxopiperidin-3-yl)-5-(9-((4-((1-(((7-(8-ethynyl-7-fluoro-3-hydroxynaphthalen-1-yl)-8-fluoro-4-((R)-3-hydroxy-3-methylpiperidin-1-yl)pyrido[4,3-d]pyrimidin-2-yl)oxy)methyl)cyclopropyl)methyl)piperazin-1-yl)methyl)-3-azaspiro[5.5]undecane-3-carbonyl)isoindoline-1,3-dione]
